The source of these data is patent US4225619A, “Substituted fluoracylresorcinols” (Boehringer Ingelheim GmBH, priority 1976, dated 1980).

A word on the MIC: it is the lowest concentration found to suppress growth.

In brackets after ≈: the same amount, converted by molar mass.

The subject of one test is Pityrosporum ovale. Kind of test: Serial dilution test for Pityrosporum ovale. The format is cell-based. Conditions: Malassezia furfur, 168 h, 27° C. for 7 days, read-out: MIC, S.D.T., Pityrosporum ovale. As to the method:
(§1) Serial dilution test for Corynebacterium acnes and Pityrosporum ovale Nutrient medium
(§2) For Corynebacterium acnes: thioglycolate-broth for Pityrosporum ovale: Littmann's broth, 5 ml per tube.
(§3) Suspension of microorganisms in 0.9% sodium chloride solution, standardized using a photometer according to Eppendorf by means of a suspension for comparison consisting of barium sulfate, for Corynebacterium acnes in a dilution of 1:100, for Pityrosporum ovale in an undiluted state. 0.1 ml of the suspensions was used per test tube. Dimethyl sulfoxide served as a solvent for the substances.
(§4) The suspension with Corynebacteria acnes was incubated at 37° C. for 48 hours, the suspension of Pityrosporum ovale at 27° C. for 7 days. The reading was effected by macroscopic evaluation of the growth of microorganisms and registration of the minimal inhibitory concentration.

For a further test, the system named is Streptococcus Aronson. Description: Serial dilution test. It counts as cell-based. Conditions: Streptococcus, 18-20 hours at 37° C., read-out: MIC, S.D.T., Streptococcus Aronson. As to the method:
(§5) The inhibitory effect on bacteria and fungi was examined by the serial dilution test and the agar diffusion test (hole-test). As bacteria were used: Staphylococcus aureus SG 511, Streptococcus Aronson, Streptococcus pyogenes At CC 86 68; as fungi: Candida albicans AT CC 10231, Trichophyton mentagrophytes AT CC 9129 and Aspergillus niger.
(§6) 2. Glucose broth: for Sc. Aronson and St. pyogenes Recipe see meat extract broth. After sterilization 1 weight percent of glucose is added as a sterile 50% solution.
(§7) The age of the primary cultures is 24 hours for bacteria and 14 days for fungi. The standardization of the suspension of microorganisms is effected using a photometer according to Eppendorf (test tube .phi.14 mm, filter 546 nm) and a suspension for comparison consisting of barium sulfate, this suspension being created by adition of 3.0 ml of 1% barium chloride solution to 97 ml of 1% sulfuric acid. After the standardization the bacteria were further diluted to a concentration of 1:1000 by means of sodium chloride solution, the fungi were used in an undiluted state.
(§8) 40 mgm of the substance were put into a 10 ml measuring flask and filled up to the mark with the solvent (corresponds to a dilution of 1:250=4000 μg/ml). The further dilution series was standardized with distilled water or the respective solvent and the following substance concentrations were prepared: 1000; 250; 62.5 μg/ml.
(§9) The tubes were filled with 4.9 ml of the corresponding liquid nutrient medium. Then 0.1 ml of the substance dilution prepared above was added to each tube, so that the mentioned final concentrations were present. Finally each tube was inoculated with 0.1 ml of the standardized suspension of microorganisms. Control tests merely using the solvent are to be carried out simultaneously.
(§10) Bacteria were incubated at 37° C. for 18-20 hours and fungi at 27° C. for 7 days.
(§11) The measurement is carried out macroscopically defining the minimal inhibitory concentration (the lowest still microbiostatically effective concentration).

Test [1] deals with glucose-6-phosphate-dehydrogenase. Description: Inhibition of glucose-6-phosphate-dehydrogenase (G6PDH). The format is biochemical. Conditions: for G6PDH-inhibition Ed50, Immediate Inhibition: 25° C. for 5 minutes preincubation; for G6PDH-inhibition Ed50, Inhibition of Incubation: 37° C. for 60 minutes preincubation. As to the method: Measurement of the inhibition of the glucose-6-phosphatedehydrogenase
The equilibrium was observed:
Glucose-6-phosphate+NADP^+ G6-DH gluconic
acid-6-phosphate+NADPH+H^+
(NADP=nicotinamide-adenine-dinycleotide-phosphate, G6P-DH=gluconic acid-6-phosphate-dehydrogenase)
The formation velocity of NADPH is a measure for the enzyme activity; it may be observed by means of the extinction increase at 340, 334 or 366 nm per unit of time.
0.025 ml of glucose-6-phosphate-dehydrogenase (Boehringer Mannheim) were filled up to 10 ml of distilled water (solution I). 100 mgm of nicotinamide-adenine-dinucleotide-phosphate were dissolved in 13 ml of distilled water (solution II). 47.2 mgm of glucose-6-phosphate were dissolved in further 10 ml of distilled water (solution 3). Simultaneously a buffer solution (solution IV) was prepared as follows: 0.28 gm of triethanolamine-hydrochloride and 1.461 gm of ethylene diaminotetraacetic acid-disodium salt were dissolved in 1 liter of distilled water and adjusted to a pH of 7.6 with sodium hydroxide solution. The substance under test was dissolved in dimethyl formamide or ethanol (solution V). Tested concentrations: 50; 25; 12.5; 6.25; 3.125; 1.56 and 0.78 μg/ml.
0.1 ml of solution I, 0.1 ml of solution II, 2.67 ml of solution IV and 0.03 ml of solution V were mixed and kept at 25° C. for 5 minutes. Then 0.1 ml of solution III was added, mixed and the alteration of extinction was determined spectrophotometrically at 366 nm for 3 minutes.
0.1 ml of solution I, 0.1 ml of solution II, 2.67 ml of solution IV and 0.03 ml of solution V were mixed and kept at 37° C. for 60 minutes. Then 0.1 ml of solution III was added, mixed and the alteration of extinction was measured spectrophotometrically at 366 nm for 3 minutes.
The inhibitory values were calculated from the average values of three measurements (alteration of extinction per minute) compared with controls, which received the pure solvent as the inhibitory solution. Then the ED50 was calculated according to Reed and Muench from the inhibitory values for the various concentrations.

Another test relates to HeLa-cell culture. Description: Inhibition of HeLa cell cultures. It counts as cell-based. Conditions: Homo sapiens, 72 h, 37° C. for 3 days, 5% carbon dioxide; for IC50: read-out: ED50, HeLa cell culture; for minimal effective concentration: read-out: Minimal inhibitory concentration, HeLa cell culture.
Test [2] concerns Staphylococcus aureus SG 511. Kind of test: Serial dilution test. It counts as cell-based. To be noted: Staphylococcus aureus, SG511, 18-20 hours at 37° C., read-out: MIC, S.D.T., Staphylococcus aureus SG 511. As to the method:
as §5
1. Meat extract broth: for St. aureus SG 511
as §7, §8, §9, §10, §11

The next test has as its system Corynebacterium acnes. Description: Serial dilution test for Corynebacterium acnes. The format is cell-based. To be noted: for MIC: Cutibacterium acnes, 37° C. for 48 hours, read-out: MIC, S.D.T., Corynebacterium acnes. As to the method:
as §1, §2, §3, §4

Test [3] relates to Streptococcus pyogenes At CC 86 68. Description: Serial dilution test. The format is cell-based. Conditions: Streptococcus pyogenes, ATCC8668, 18-20 hours at 37° C., read-out: MIC, S.D.T., Streptococcus pyogenes. As to the method:
as §5, §6, §7, §8, §9, §10, §11

For the molecule `O=C(c1ccc(O)cc1O)C(F)(F)F` [A, 2,4-Dihydroxy-trifluoroacetophenone, reference compound], the MIC (in the test with Pityrosporum ovale; in the test on Streptococcus Aronson; in test [2]; in the test with Corynebacterium acnes) was 80 µg/mL (≈ 388 µM) each time. Also, in test [1], the “G6PDH-inhibition Ed50, Immediate Inhibition” value was above 50 µg/mL. In test [1], the “G6PDH-inhibition Ed50, Inhibition of Incubation” value worked out at 33 µg/mL. Also, the IC50 with HeLa-cell culture worked out at 12.5 µg/mL (≈ 60.6 µM). For the same molecule, the minimal effective concentration with HeLa-cell culture turned out to be 3.13 µg/mL.

As for `CCc1cc(C(=O)C(F)(F)F)c(O)cc1O` [B, 5-Ethyl-2,4-dihydroxy-trifluoroacetophenone, reference compound], the MIC in the test on Pityrosporum ovale stood at 80 µg/mL (≈ 342 µM); in test [3] it was 20 µg/mL (≈ 85.4 µM); in the test on Streptococcus Aronson, 20 µg/mL (≈ 85.4 µM); in test [2] it was 20 µg/mL (≈ 85.4 µM); with Corynebacterium acnes it was 20 µg/mL (≈ 85.4 µM). Also, the “G6PDH-inhibition Ed50, Immediate Inhibition” value in test [1] is 34.5 µg/mL. For the same molecule, in test [1], the “G6PDH-inhibition Ed50, Inhibition of Incubation” value was determined as 30 µg/mL. In addition, in the test on HeLa-cell culture, the IC50 stood at 9.75 µg/mL (≈ 41.6 µM). For the same molecule, the minimal effective concentration in the test with HeLa-cell culture was determined as 6.25 µg/mL.

As to `CCc1c(O)ccc(C(=O)C(F)(F)F)c1O` [C, 3-Ethyl-2,4-dihydroxy-trifluoroacetophenone, reference compound], the MIC in the test with Pityrosporum ovale is above 80 µg/mL; in test [3] it was 1.25 µg/mL (≈ 5.34 µM); in the test on Streptococcus Aronson, 5 µg/mL (≈ 21.4 µM); in test [2] it was 5 µg/mL (≈ 21.4 µM); with Corynebacterium acnes, 1.25 µg/mL (≈ 5.34 µM). Besides, the “G6PDH-inhibition Ed50, Immediate Inhibition” value in test [1] came to 37.5 µg/mL. The “G6PDH-inhibition Ed50, Inhibition of Incubation” value in test [1] was 20 µg/mL.

For `COc1ccc(C(=O)C(F)(F)F)c(OC)c1` [D, 2,4-Dimethoxy-trifluoroacetophenone, reference compound], the MIC (in the test with Pityrosporum ovale; in test [3]; in the test with Streptococcus Aronson; in test [2]; in the test with Corynebacterium acnes) was above 80 µg/mL throughout. Further, in test [1], the “G6PDH-inhibition Ed50, Immediate Inhibition” value is above 50 µg/mL. The “G6PDH-inhibition Ed50, Inhibition of Incubation” value in test [1] was above 50 µg/mL. In addition, the IC50 in the test on HeLa-cell culture came to 90.1 µg/mL (≈ 385 µM). In addition, the minimal effective concentration in the test with HeLa-cell culture was determined as 25 µg/mL.

In the case of `CC(C)Cc1c(O)ccc(C(=O)C(F)(F)F)c1O` [F, 2,4-Dihydroxy-3-iso-butyl-trifluoroacetophenone], the minimal inhibitory concentration (MIC) with Pityrosporum ovale turned out to be 80 µg/mL (≈ 305 µM); in test [3], 1.25 µg/mL (≈ 4.77 µM); in the test on Streptococcus Aronson, 1.25 µg/mL (≈ 4.77 µM); in test [2], 0.08 µg/mL (≈ 0.305 µM); in the test on Corynebacterium acnes it was 0.31 µg/mL (≈ 1.18 µM). Besides, in test [1], the “G6PDH-inhibition Ed50, Immediate Inhibition” value is 37.7 µg/mL. Besides, the “G6PDH-inhibition Ed50, Inhibition of Incubation” value in test [1] was 27.7 µg/mL. In the test with HeLa-cell culture, the IC50 was 7.7 µg/mL (≈ 29.4 µM). Further, the minimal effective concentration with HeLa-cell culture amounted to 0.78 µg/mL.

In the case of `CC1CCC(c2c(O)ccc(C(=O)C(F)(F)F)c2O)CC1` (stereo not shown) [H, 2,4-Dihydroxy-3-(4'-methyl)-cyclohexyl-trifluoro-acetophenone], the MIC was above 80 µg/mL with Pityrosporum ovale; 0.31 µg/mL (≈ 1.03 µM) in test [3]; 1.25 µg/mL (≈ 4.14 µM) in the test with Streptococcus Aronson; 0.31 µg/mL (≈ 1.03 µM) in test [2]; 1.25 µg/mL (≈ 4.14 µM) with Corynebacterium acnes. Also, the IC50 with HeLa-cell culture was found to be 4.2 µg/mL (≈ 13.9 µM). Moreover, the minimal effective concentration with HeLa-cell culture was at most 0.78 µg/mL.

Turning to `CC(C)c1c(O)ccc(C(=O)C(F)(F)F)c1O` [P, 2,4-Dihydroxy-3-isopropyl-trifluoroacetophenone], the minimum inhibitory concentration (MIC) came to 1.25 µg/mL (≈ 5.04 µM) in test [3], 1.25 µg/mL (≈ 5.04 µM) in the test with Streptococcus Aronson, 1.25 µg/mL (≈ 5.04 µM) in test [2] and 5 µg/mL (≈ 20.1 µM) in the test on Corynebacterium acnes. The “G6PDH-inhibition Ed50, Immediate Inhibition” value in test [1] is 14.8 µg/mL. The “G6PDH-inhibition Ed50, Inhibition of Incubation” value in test [1] turned out to be 9.9 µg/mL. For the same molecule, the IC50 in the test with HeLa-cell culture is 3.52 µg/mL (≈ 14.2 µM). Besides, in the test on HeLa-cell culture, the minimal effective concentration amounted to 1.56 µg/mL. Moreover, the “Concentration with reduced growth (value in brackets), S.D.T., Corynebacterium acnes” value with Corynebacterium acnes (reduced growth at this concentration) was found to be 1.25 µg/mL.
